Results reported in US4374773A, “Triazolo-benzodiazepine derivatives” (Hoffmann-La Roche Inc., priority 1980, dated 1983).

Assays:
[1] = acute toxicity, single oral administration to mice; conditions: mouse, in vivo
Description: (§1) The following Table contains results which have been obtained in the previously described experiment with representative compounds of formula I. In this Table there are given for each compound in question the dosage administered (in mg/kg p.o.) as well as the percentage variation in the urine volume, the sodium excretion and the potassium excretion in comparison with the control animals (i.e. in comparison with the animals treated only with aldosterone). Moreover, the Table contains data relating to the acute toxicity of the compounds investigated (LD 50 in mg/kg in the case of single oral administration to mice).

[2] = tested on: aldosterone; test: aldosterone-antagonistic properties in adrenalectomised rats (urine volume, sodium and potassium excretion); type: in vivo, Female Holtzmann rats; conditions: aldosterone s.c. 30 min later, urine collected 3 hours, control = aldosterone only
Method: If compounds of formula I are administered to the animals before the treatment with aldosterone, then there is observed, in comparison with animals which are treated only with aldosterone (control animals), a pronounced increase of the sodium excretion (i.e. the sodium retention caused by aldosterone is antagonised), whereas the potassium excretion and the urine volume are influenced to a lesser extent.
The standard experiment is carried out as follows:
Female Holtzmann rats (150-180 g) are bilaterally adrenalectomised 70 to 74 hours before the beginning of the experiment. After the operation, the animals receive a customary rat dry feed and 0.9 percent sodium chloride solution for drinking. 16 to 17 hours before the beginning of the experiment the feed is removed from the animals, but they can subsequently drink, as before, 0.9 percent sodium chloride solution ad libitum. At the beginning of the experiment the substance to be tested as an aldosterone-antagonist is administered to the animals by means of a stomach probe. 30 minutes later the animals receive a subcutaneous injection of 4 mmg/kg of aldosterone. After a further 90 minutes, the urinary bladders of the animals are emptied by careful suprapubic pressure, whereupon the animals are placed individually in metabolic cages without food and without drink. The urine of the animals is then collected for 3 hours, whereupon their urinary bladders are once more emptied. The spontaneously excreted urine and the remaining urine obtained at the conclusion of the experiment by pressing-out the urinary bladders are collected in graduated centrifuge glasses. Sodium and potassium concentrations in the urine are determined with a flame photometer.
as §1

[3] = tested on: aldosterone; test: as above; type: in vivo, Female Holtzmann rats; conditions: compared with untreated animals

SMILES | LD50 [1] | potassium excretion [K+] in %, based on control animals ([2]; 1 mg/kg p.o.) | sodium excretion [Na+] in %, based on control animals ([2]; 1 mg/kg p.o.) | urine volume in %, based on control animals ([2]; 1 mg/kg p.o.) | excreted urine volume, effect of aldosterone [3] | potassium excretion, effect of aldosterone [3] | sodium excretion, effect of aldosterone [3] | potassium excretion [K+] in %, based on control animals ([2]; 10 mg/kg p.o.) | sodium excretion [Na+] in %, based on control animals ([2]; 10 mg/kg p.o.) | urine volume in %, based on control animals ([2]; 10 mg/kg p.o.)
Cc1nnc2n1-c1ccc(NC(=O)NCCO)cc1C(c1ccccc1F)=NC2(C)C [Example 4, 1-[6-(o-fluorophenyl)-1,4,4-trimethyl-4H-s-triazolo[4,3-a][1,4]benzodiazepin-8-yl]-3-(2-hydroxyethyl)urea] | > 5000 mg/kg | 90% | 256% | 112% | – | – | – | – | – | –
C[C@]12CCC(=O)C=C1CC[C@@H]1[C@@H]2[C@@H](O)C[C@]2(C=O)[C@@H](C(=O)CO)CC[C@@H]12 [aldosterone] | – | – | – | – | reduction of the excreted urine volume | increased potassium excretion | pronounced reduction of the sodium excretion | – | – | –
Cc1nnc2n1-c1ccc(NC(=O)NCCO)cc1C(c1ccccc1Cl)=NC2(C)C [Example 12, 1-[6-(o-chlorophenyl)-1,4,4-trimethyl-4H-s-triazolo[4,3-a][1,4]benzodiazepin-8-yl]-3-(2-hydroxyethyl)urea] | > 5000 mg/kg | 75% | 215% | 75% | – | – | – | – | – | –
CN(C)C(=O)Nc1ccc2c(c1)C(c1ccccc1F)=NC(C)(C)c1nncn1-2 [Example 5, 3-[6-(o-fluorophenyl)-4,4-dimethyl-4H-s-triazolo[4,3-a][1,4]benzodiazepin-8-yl]-1,1-dimethylurea] | > 5000 mg/kg | 65% | 238% | 106% | – | – | – | – | – | –
Cc1nnc2n1-c1ccc(NC(=O)N(C)C)cc1C(c1ccccc1Cl)=NC2 [Example 10, 3-[6-(o-chlorophenyl)-1-methyl-4H-s-triazolo[4,3-a][1,4]-benzodiazepin-8-yl]-1,1-dimethylurea] | > 5000 mg/kg | – | – | – | – | – | – | 112% | 252% | 103%
CN(C)C(=O)Nc1ccc2c(c1)C(c1ccccc1Cl)=NCc1nncn1-2 [Example 8, 3-[6-(o-chlorophenyl)-4H-s-triazolo[4,3-a][1,4]benzodiazepin-8-yl]-1,1-dimethylurea] | > 5000 mg/kg | – | – | – | – | – | – | 100% | 252% | 131%
CC1(C)N=C(c2ccccc2Cl)c2cc(NC(=O)N3CCCC3)ccc2-n2cnnc21 [Example 13, N-[6-(o-chlorophenyl)-4,4-dimethyl-4H-s-triazolo[4,3-a][1,4]benzodiazepin-8-yl]-1-pyrrolidinecarboxamide] | > 5000 mg/kg | 72% | 155% | 97% | – | – | – | – | – | –
